Data from ChEMBL document CHEMBL5150017, “Mechanism of Action and Structure-Activity Relationship of α-Conotoxin Mr1.1 at the Human α9α10 Nicotinic Acetylcholine Receptor” (J Med Chem, 2022).
pIC50: −log10 of the molar value.

Assays:
[1] = target: Neuronal acetylcholine receptor; alpha9/alpha10 (Homo sapiens, UniProt Q9GZZ6+Q9UGM1); assay: Antagonist activity at human alpha9alpha10 nAChR expressed in Xenopus laevis oocytes assessed as inhibition of ACh-induced current amplitude at -80 mV holding potential by two-electrode voltage clamp method; type: cell-based, Oocyte
[2] = target: T1, Neuronal acetylcholine receptor; alpha9/alpha10 (Homo sapiens) (UniProt Q9UGM1+Q9GZZ6); assay: Antagonist activity at human alpha9alpha10 nAChR expressed in Xenopus laevis oocytes assessed as inhibition of ACh-induced current amplitude at -80 mV holding potential at 10 uM by two-electrode voltage clamp method; type: cell-based; details: Oocyte
[3] = target: T1, Neuronal acetylcholine receptor; alpha9/alpha10 (Homo sapiens); assay: Antagonist activity at human alpha9alpha10 nAChR expressed in Xenopus laevis oocytes assessed as inhibition of ACh-induced current amplitude at -80 mV holding potential at 1 uM by two-electrode voltage clamp method; type: cell-based; details: Oocyte

Chain of Neuronal acetylcholine receptor; alpha9/alpha10 (Q9UGM1 whole entry): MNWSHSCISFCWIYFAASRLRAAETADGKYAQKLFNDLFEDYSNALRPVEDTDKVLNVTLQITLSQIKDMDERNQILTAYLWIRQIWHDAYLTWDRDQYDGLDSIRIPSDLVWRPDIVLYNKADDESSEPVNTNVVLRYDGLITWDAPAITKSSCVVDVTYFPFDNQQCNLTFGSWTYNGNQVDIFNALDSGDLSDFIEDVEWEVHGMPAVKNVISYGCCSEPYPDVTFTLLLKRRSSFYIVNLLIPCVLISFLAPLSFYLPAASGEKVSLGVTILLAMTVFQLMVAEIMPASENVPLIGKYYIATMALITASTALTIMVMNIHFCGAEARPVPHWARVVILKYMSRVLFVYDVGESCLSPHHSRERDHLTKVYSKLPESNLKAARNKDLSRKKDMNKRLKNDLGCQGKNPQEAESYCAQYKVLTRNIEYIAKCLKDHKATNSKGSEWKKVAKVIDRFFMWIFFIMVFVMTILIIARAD
Chain of Neuronal acetylcholine receptor; alpha9/alpha10 (Q9GZZ6 whole entry): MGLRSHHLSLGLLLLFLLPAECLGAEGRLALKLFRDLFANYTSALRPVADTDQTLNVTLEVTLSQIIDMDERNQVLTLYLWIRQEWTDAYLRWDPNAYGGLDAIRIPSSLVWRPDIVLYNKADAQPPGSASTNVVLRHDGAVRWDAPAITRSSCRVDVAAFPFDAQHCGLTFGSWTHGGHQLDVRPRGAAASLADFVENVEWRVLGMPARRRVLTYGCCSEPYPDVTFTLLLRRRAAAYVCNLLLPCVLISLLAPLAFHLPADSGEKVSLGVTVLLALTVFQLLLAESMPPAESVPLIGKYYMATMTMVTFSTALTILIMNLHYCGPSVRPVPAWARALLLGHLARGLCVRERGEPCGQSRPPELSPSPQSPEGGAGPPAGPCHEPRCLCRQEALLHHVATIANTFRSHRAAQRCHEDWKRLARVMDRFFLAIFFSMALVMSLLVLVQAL

SMILES	pIC50 [1]	inhibition [2] [%]	inhibition [3] [%]
N=C(N)NCCC[C@H](NC(=O)[C@H](CS)NC(=O)[C@H](CCCNC(=N)N)NC(=O)[C@H](Cc1ccc(O)cc1)NC(=O)[C@H](CCCNC(=N)N)NC(=O)[C@H](CS)NC(=O)[C@H](CCCNC(=N)N)NC(=O)[C@@H]1CCCN1C(=O)[C@H](CC(=O)O)NC(=O)[C@H](CO)NC(=O)[C@H](CS)NC(=O)[C@H](CS)NC(=O)CN)C(=O)O	6.30		
CC[C@H](C)[C@@H]1NC(=O)[C@H](CCC(=O)O)NC(=O)[C@@H]2CCCN2C(=O)[C@H](Cc2cnc[nH]2)NC(=O)[C@H](CC(=O)O)NC(=O)[C@H](Cc2ccc(O)cc2)NC(=O)[C@H](CC(N)=O)NC(=O)[C@@H]2CSSC[C@H](NC(=O)CN)C(=O)N[C@@H](CSSC[C@@H](C(N)=O)NC1=O)C(=O)N[C@@H](CO)C(=O)N[C@@H](CC(=O)O)C(=O)N1CCC[C@H]1C(=O)N[C@@H](CCCNC(=N)N)C(=O)N2		0	20
